How the values were obtained:
[1] = test system: ADCK3 knockdown/knockout SKBR3 cells; assay: Ferroptosis induction in ADCK3 knockdown/knockout SKBR3 cells (CellTiter-Glo); type: cell-based; details: for rescue of RSL3-induced death in siRNA ADCK3 knockdown cells: SKBR3, siRNA ADCK3, RSL3 48 h
Experimental: At 48 h after transfection, cells were treated with RSL3 in 2-fold dilution series for 48 h, in combination with ferrostatin-1 or idebenone. Viability was measured with CellTiter-Glo®. […] Stable CRISPR cells were treated with FIN56 in 2-fold dilution series in combination with ferrostatin-1, for 48 h. Viability was measured with CellTiter-Glo®. […] (grey) cells were treated with RSL3 or FIN56 in 2-fold dilution series in combination with 2 μM ferrostatin-1 for 48 h. Viability was measured with CellTiter-Glo®.

SKBR3 cells [2] = assay: SKBR3 cell death / viability on SGC-GAK-1 treatment; type: cell-based
Source text: (§1) Thus, it was concluded that SGC-GAK-1 induces ferroptosis in ADCK3-amplified cells, perhaps by reducing the levels of ADCK3 and CoQ10.

SKBR3 cells [3] = assay: Cellular lipid-ROS by C11-BODIPY flow cytometry; type: cell-based
Source text: as §1

[4] = test system: triple-negative breast cancer; details: cited from earlier work
[5] = test system: SKBR3 cells overexpressing ADCK3-FLAG; assay: Ferroptosis induction in SKBR3 cells overexpressing ADCK3-FLAG (CellTiter-Glo); type: cell-based; details: RSL3 10 or 20 nM, FIN56 78 or 156 nM, 48 h
Experimental: Viability was measured with CellTiter-Glo®.
ADCK3-FLAG was stably overexpressed in SKBR3 cells through retroviral infection. First, proper localization of the overexpressed protein to the mitochondria was validated by fluorescent microscopy. Similarly to the localization pattern of endogenous ADCK3 to the mitochondria, overexpressed ADCK3-FLAG co-localized with a MitoTracker fluorescent probe (FIG. 5A).

[6] = test system: breast cancer cell lines (high-ADCK3 vs low-ADCK3); assay: Breast cancer cell line panel viability with ferroptosis inducers (CellTiter-Glo); type: cell-based; details: 2-fold dilution series, 72 hours
Experimental: Breast cancer cell lines were treated with ferroptosis inducers FIN56 (FIG. 2D) or RSL3 (FIG. 2E) in 2-fold dilution series for 72 hours. Cell viability was measured with CellTiter-Glo®. Ferroptosis-sensitive breast cancer cells are categorized as ‘high-ADCK3’ expressing (orange), while cells that are less sensitive to ferroptosis induction were the ones with ‘low-ADCK3’ (green).
A panel of 10 breast cancer cell lines was selected form the Broad Institute Cancer Cell Line Encyclopedia database (CCLE; https://portals.broadinsitute.org/ccle),based on their ADCK3 copy number and mRNA expression levels, to have a good representation of ADCK3-amplified cells (termed here as ‘high-ADCK3’), as well as a control group expressing normal levels of ADCK3 (termed here as ‘low-ADCK3’; FIG. 2A). To confirm a correlation between high ADCK3 gene/transcript expression and protein expression, ADCK3 levels were measured by western blot (FIG. 2B). Cells were divided into high-ADCK3 (orange in FIGS. 2A-2E) and low-ADCK3 (green in FIGS. 2A-2E) according to the protein expression level. […] High ADCK3 protein levels correlated with high CoQ10 abundance, measured by LC-MS (FIG. 2C). […]

CoQ10 = CoQ10 abundance in SKBR3 cells by LC/MS; type: cell-based; details: SKBR3, 50 nM SGC-GAK-1, 48 hours
Source text: CoQ10 abundance in SKBR3 cells treated as in FIG. 6A, measured by LC/MS.
as §1

ADCK3 [7] = assay: Western blot of ADCK3 protein levels in SKBR3 cells; type: cell-based; details: SKBR3, 50 nM SGC-GAK-1, 48 hours
Experimental: SKBR3 cells were treated with 50 nM SGC-GAK-1 or vehicle, for 48 h, and analyzed by western blot for ADCK3 and GAPDH levels.
as §1

ADCK3 [8] = target: ADCK3 (Homo sapiens, UniProt Q8NI60); details: reported, Asquith et al. 2019; cited from earlier work
ADCK3 (Homo sapiens, UniProt Q8NI60), sequence (Q8NI60 163-647): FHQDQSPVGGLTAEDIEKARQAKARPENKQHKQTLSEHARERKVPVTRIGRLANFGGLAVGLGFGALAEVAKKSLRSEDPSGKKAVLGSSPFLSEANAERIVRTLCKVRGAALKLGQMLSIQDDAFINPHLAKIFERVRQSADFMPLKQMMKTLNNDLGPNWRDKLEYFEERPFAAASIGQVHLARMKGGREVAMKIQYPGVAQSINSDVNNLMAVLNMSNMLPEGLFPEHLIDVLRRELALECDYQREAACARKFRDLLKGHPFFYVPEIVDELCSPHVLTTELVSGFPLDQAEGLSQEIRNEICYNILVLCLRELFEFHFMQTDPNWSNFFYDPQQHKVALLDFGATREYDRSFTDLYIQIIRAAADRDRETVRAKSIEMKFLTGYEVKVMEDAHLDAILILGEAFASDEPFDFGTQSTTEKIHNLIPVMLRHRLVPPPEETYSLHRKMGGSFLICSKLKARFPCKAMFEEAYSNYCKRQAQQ

COC1=C(OC)C(=O)C(CCCCCCCCCCO)=C(C)C1=O [idebenone]
rescue of RSL3-induced death in siRNA ADCK3 knockdown cells [1]: rescued

CCOC(=O)c1ccc(NC2CCCCC2)c(N)c1 [ferrostatin-1]
rescue of SGC-GAK-1-induced ferroptotic death (SKBR3 cells [2]; SKBR3, 1 µM ferrostatin-1): rescued
rescue of SGC-GAK-1-induced increase in cellular lipid-ROS (SKBR3 cells [3]; SKBR3, 2 µM ferrostatin-1): rescued
rescue of death and sensitization in CRISPR/shRNA ADCK3 knockout cells ([1]; SKBR3, RSL3 or FIN56 with ferrostatin-1 (2 µM in shRNA cells)): rescued
rescue of RSL3-induced death in siRNA ADCK3 knockdown cells [1]: rescued

Tecentriq: approved in combination with protein-bound paclitaxel for unresectable triple-negative breast cancer whose tumors express PD-L1
patients who experienced adverse reactions ([4]; in vivo): greater than 20%
median progression-free survival ([4]; with protein-bound paclitaxel, PD-L1 expressing unresectable triple-negative breast cancer): 7.4 months
extension of median progression-free survival ([4]; with protein-bound paclitaxel, from 4.8 to 7.4): 2.6 months

O=S(=O)(NC1CCCCC1)c1ccc2c(c1)C(=NO)c1cc(S(=O)(=O)NC3CCCCC3)ccc1-2 [FIN56]
cytotoxic effect in cells overexpressing ADCK3 compared to control [5]: statistically significant reduction in cytotoxic effect
sensitivity to ferroptosis induction of cells with amplified ADCK3 expression [6]: distinct higher sensitivity

COC(=O)c1ccc([C@@H]2c3[nH]c4ccccc4c3C[C@@H](C(=O)OC)N2C(=O)CCl)cc1 [RSL3]
cytotoxic effect in cells overexpressing ADCK3 compared to control [5]: statistically significant reduction in cytotoxic effect
sensitivity to ferroptosis induction of cells with amplified ADCK3 expression [6]: distinct higher sensitivity
sensitivity of siRNA ADCK3 knockdown cells to ferroptosis inducer ([1]; SKBR3, siRNA ADCK3 vs non-targeting control, 48 h treatment): increased the sensitivity

COc1cc(Nc2ccnc3ccc(Br)cc23)cc(OC)c1OC [SGC-GAK-1]
CoQ10 levels (CoQ10): reduced CoQ10 levels
ADCK3 protein levels (ADCK3 [7]): marked reduction in ADCK3 protein levels
sensitivity of SKBR3 cells to RSL3-mediated ferroptotic death (SKBR3 cells [2]; SGC-GAK-1 combined with RSL3): further potentiated SKBR3 cells to RSL3-mediated ferroptotic death
cell death induced by SGC-GAK-1 alone (SKBR3 cells [2]; SKBR3 cells, with or without ferrostatin-1): induced cell death that was rescued by the ferroptosis inhibitor ferrostatin-1
inhibitory activity against ADCK3 (ADCK3 [8]): nanomolar inhibitory activity
lipid-ROS (SKBR3 cells [3]; SKBR3, 50 nM SGC-GAK-1, 48 h, C11-BODIPY): increase in lipid-ROS
